From PMC10785800, “Molecular Basis for Inhibition of Heparanases and β-Glucuronidases by Siastatin B” (Journal of the American Chemical Society, 2023)
Read-outs that look alike come from different tables or passages of the source.

Assays:
[1] = target: T1, Acidobacterium capsulatum β-glucuronidase (AcGH79) (Acidobacterium capsulatum, UniProt C1F2K5); experiment: Inhibition of AcGH79 hydrolysis of 4-methylumbelliferyl glucuronide (MU-GlcUA); type: biochemical
T1 sequence (C1F2K5 1-475): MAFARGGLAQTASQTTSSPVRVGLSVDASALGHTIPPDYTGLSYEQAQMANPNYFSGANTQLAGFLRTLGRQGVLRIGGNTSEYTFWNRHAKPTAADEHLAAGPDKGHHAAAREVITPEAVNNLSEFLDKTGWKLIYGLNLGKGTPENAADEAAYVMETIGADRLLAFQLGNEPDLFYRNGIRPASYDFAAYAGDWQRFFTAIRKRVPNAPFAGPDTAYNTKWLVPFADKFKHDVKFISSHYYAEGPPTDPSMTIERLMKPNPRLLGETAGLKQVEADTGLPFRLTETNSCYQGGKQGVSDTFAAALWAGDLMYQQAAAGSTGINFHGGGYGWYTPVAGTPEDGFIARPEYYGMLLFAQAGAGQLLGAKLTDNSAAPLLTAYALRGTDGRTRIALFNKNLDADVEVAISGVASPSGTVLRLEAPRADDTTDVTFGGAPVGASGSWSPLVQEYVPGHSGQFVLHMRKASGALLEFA
Text: (§1) To assess the potency of the synthesized 1-N-iminosugars, we first turned to the exo-acting β-glucuronidases AcGH79 and EcGusB, whose activity can be readily monitored with the use of the fluorogenic substrate 4-methylumbelliferyl glucuronide (MU-GlcUA). As these β-glucuronidases belong to different families–AcGH79 to the GH79 family and EcGusB to the GH2 family[46]—assessing inhibition with these enzymes also gives some insights into the applicability of these molecules. All four synthesized compounds (8–11) are able to inhibit both enzymes (see Table 1, Figures S5 and S6).
(§2) Figure S5. Inhibition kinetics of AcGH79 treated with synthetic inhibitors. The inhibition constants for AcGH79 treated with A) 11, B) 9, C) 10, and D) 8 were determined. Michaelis-Menten saturation curves were determined in the presence of various concentration of inhibitor (left panel). These curves were fit to a hyperbolic equation, resulting in a Michaelis constant (KM). The KM values were then plotted against the inhibitor concentration (right panel). A linear fit of this plot was then used to determine the inhibition constant (KI).
(§3) Initial rates were determined for AcGH79 and EcGusB hydrolysis of 4-methylumbelliferyl glucuronide in the presence of varying concentrations either commercial or HPLC purified siastatin B to determine inhibitory IC50 concentrations. Reactions contained 20 mM NaCl, 1 % BSA, 60 mM McIllvane Buffer pH 5.0 and 500 µM 4-methylumbelliferyl glucuronide and 0 – 400 µM siastatin B. Assays were initiated by the addition of enzyme to a final concentration of 2 nM. Fluorescence was monitored using a Clariostar plate reader using an excitation wavelength of 365 nm and emission wavelength of 450 nm.
(§4) Assays were performed in quadruplicate and the variation of initial rates with inhibitor concentration […]
(§5) were fit to the Hill equation: with the software program Origin 2019. A=Amax( kn+ [I]n) To determine inhibition constant (Ki) values, Michaelis-Menten parameters were determined for AcGH79 and EcGusB hydrolysis of 4-methylumbelliferyl glucuronide in reactions containing one of the inhibitors 8, 9, 10 or 11. Assays were initiated by the addition of enzyme to the assay mix containing 0-1 mM 4-methylumbelliferyl glucuronide, 20 mM NaCl, 0.1 % BSA, 60 mM McIllvane Buffer pH
(§6) 5.0. Fluorescence was monitored as above. Michaelis constants were determined for at least 3 different inhibitor concentrations for each different inhibitor. Inhibition constants were calculated according to a competitive inhibition model for both inhibitors using the equation : . All K= K(1+ [I]) […]
(§7) kinetic parameters were fit with the software program Origin 2019. […]
(§8) The Journal of Organic Chemistry 2005, 70, 5207-5214.
(§9) Nat Struct Mol Biol 2015, 22 (12), 1016-1022.
(§10) (7) Winter, G. xia2: an expert system for macromolecular crystallography data reduction. Journal of […]

[2] = target: T2, E. coli β-glucuronidase (EcGusB) (Escherichia coli, UniProt P05804); experiment: Inhibition of EcGusB hydrolysis of 4-methylumbelliferyl glucuronide (MU-GlcUA); type: biochemical; conditions: for Ki: fluorogenic substrate MU-GlcUA, McIllvane buffer pH 5.0, competitive inhibition model
T2 construct: made in house; host or cells: E. coli BL21 Gold (DE3)
T2 sequence (P05804 whole entry): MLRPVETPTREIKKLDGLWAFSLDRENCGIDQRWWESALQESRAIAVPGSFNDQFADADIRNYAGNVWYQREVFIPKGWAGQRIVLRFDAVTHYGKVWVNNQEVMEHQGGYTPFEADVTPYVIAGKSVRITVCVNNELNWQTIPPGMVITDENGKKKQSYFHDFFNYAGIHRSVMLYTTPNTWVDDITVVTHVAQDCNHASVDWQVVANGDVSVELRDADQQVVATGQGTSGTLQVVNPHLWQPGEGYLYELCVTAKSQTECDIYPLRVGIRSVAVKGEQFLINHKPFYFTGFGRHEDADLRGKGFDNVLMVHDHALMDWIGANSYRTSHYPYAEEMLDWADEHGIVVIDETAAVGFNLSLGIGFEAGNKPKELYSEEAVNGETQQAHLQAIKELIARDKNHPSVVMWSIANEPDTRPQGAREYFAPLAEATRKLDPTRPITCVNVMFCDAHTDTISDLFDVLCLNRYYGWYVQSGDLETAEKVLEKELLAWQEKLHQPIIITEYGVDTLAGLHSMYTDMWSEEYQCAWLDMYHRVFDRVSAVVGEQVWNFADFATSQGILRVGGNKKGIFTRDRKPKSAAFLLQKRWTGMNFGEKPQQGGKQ
Text: as §1
as §2, with “S6.” for “S5.”, “EcGusB” for “AcGH79”
(§11) (1 picture or pasted object on this page, not shown here)
as §3, §4, §5, §6, §7, §8, §9, §10

[3] = target: T3, human β-glucuronidase (HsGUSB) (Homo sapiens, UniProt P08236); experiment: Competitive activity-based protein profiling (cABPP) of GUSB in platelet lysate; type: biochemical; conditions: cABPP with ABP VB-A69 100 nM, pH 5.0, 1 h preincubation at 37°C
T3 construct: endogenous in cells; host or cells: human platelets (lysate)
T3 sequence (P08236 23-651): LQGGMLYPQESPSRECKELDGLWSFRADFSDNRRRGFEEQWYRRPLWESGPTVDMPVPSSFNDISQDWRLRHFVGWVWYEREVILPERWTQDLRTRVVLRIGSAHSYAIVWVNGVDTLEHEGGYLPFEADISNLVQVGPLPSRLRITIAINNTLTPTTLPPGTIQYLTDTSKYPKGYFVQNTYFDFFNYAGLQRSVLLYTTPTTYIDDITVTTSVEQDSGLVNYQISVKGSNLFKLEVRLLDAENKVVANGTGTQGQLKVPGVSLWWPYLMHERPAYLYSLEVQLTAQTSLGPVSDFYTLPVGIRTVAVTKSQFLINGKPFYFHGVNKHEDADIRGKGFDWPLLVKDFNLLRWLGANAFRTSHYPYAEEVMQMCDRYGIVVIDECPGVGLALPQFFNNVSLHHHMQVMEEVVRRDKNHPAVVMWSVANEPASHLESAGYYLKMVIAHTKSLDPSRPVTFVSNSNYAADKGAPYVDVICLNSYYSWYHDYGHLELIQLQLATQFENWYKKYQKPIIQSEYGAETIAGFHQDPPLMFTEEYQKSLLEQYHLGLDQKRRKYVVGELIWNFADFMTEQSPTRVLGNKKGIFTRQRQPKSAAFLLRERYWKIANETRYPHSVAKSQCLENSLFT
Text: (§12) We next examined whether the synthetic 1-N-iminosugars could inhibit HPSE and human β-glucuronidase. To assess the potency of these inhibitors, we used a competitive activity-based protein profiling (cABPP) assay, that measures the ability of the inhibitor to reduce fluorescent labeling of an enzyme by a fluorescent pan-β-glucuronidase activity-based probe (ABP).[16],[34] Using this cABPP assay, we can simultaneously monitor the inhibition of HPSE and GUSB that are both present in platelet lysates.[6],[29] […] The IC50’s determined for HPSE were greater than that observed for GUSB, which is anticipated for monomer-like inhibitors acting on multisubsite endo-acting enzymes. […] However, the trend that inhibition was improved with the removal of the 3-geminal diol was maintained for both GUSB and HPSE.
(§13) Figure 3 Competitive ABPP of platelet lysate with synthetic iminosugars. Iminosugars 8–11 inhibit both GusB and HPSE present in human platelet lysate. Quantitated fluorescence plots used to determine IC50 values are available in Figure S7. Full length gel images and replicates are available in Figure S8, and Coomassie stained gels are available in Figure S9.
(§14) Figure S7. Inhibition of HPSE and GusB in human platelet lysates by inhibitors 8, 9, 10 and 11. A […]
(§15) normalized quantitated band intensities for HPSE against inhibitor concentration. […]
(§16) Xray diffraction data were collected at 100 K at beamlines i03, i04 and i04-1 of the Diamond Light Source UK. Reflections were autoprocessed using the XIA2 pipeline7. Complexes were solved by directly refining against their unliganded structures where solved using molecular replacement with PHASER4 (search model PDB accessions 5E98 (HPSE), 3VNY (AcGH79), 3K46 (EcGUSB)). Solved […]
(§17) refinement using COOT8 and REFMAC59 respectively. Ligand coordinates were built using jLigand10.
(§18) Diagrams were generated using PyMOL (Delano Scientific). cABPP Labelling experiments:
(§19) ABP labelling reactions were carried out in McIlvaine buffer (pH 5.0), 300 mM NaCl. Labeling reactions were initiated by the addition of ABP VB-A69 to a final concentration of 100 nM, before incubation for 30 min at 37°C with shaking. Following labeling, samples were denatured by boiling with Laemmli buffer for 5 min and resolved by SDS-PAGE. […]
(§20) For competitive ABPP (cABPP) experiments, platelet lysates were preincubated with inhibitor (or buffer only control) in McIlvaine buffer (pH 5.0), 300 mM NaCl for 1 h at 37°C with shaking. […] For quantitative measurements, fluorescently labeled the band intensities were calculated using Imagequant (Cytiva), and normalized to the corresponding band in the inhibitor free control lane. IC50 concentrations were determined by fitting data to the Hill equation: […]

[4] = target: T4, human heparanase (HPSE) (Homo sapiens, UniProt Q9Y251); experiment: Competitive activity-based protein profiling (cABPP) of HPSE in platelet lysate; type: biochemical; conditions: cABPP with ABP VB-A69 100 nM, pH 5.0, 1 h preincubation at 37°C
T4 construct: endogenous in cells; host or cells: human platelets (lysate)
T4 sequence (Q9Y251 36-543): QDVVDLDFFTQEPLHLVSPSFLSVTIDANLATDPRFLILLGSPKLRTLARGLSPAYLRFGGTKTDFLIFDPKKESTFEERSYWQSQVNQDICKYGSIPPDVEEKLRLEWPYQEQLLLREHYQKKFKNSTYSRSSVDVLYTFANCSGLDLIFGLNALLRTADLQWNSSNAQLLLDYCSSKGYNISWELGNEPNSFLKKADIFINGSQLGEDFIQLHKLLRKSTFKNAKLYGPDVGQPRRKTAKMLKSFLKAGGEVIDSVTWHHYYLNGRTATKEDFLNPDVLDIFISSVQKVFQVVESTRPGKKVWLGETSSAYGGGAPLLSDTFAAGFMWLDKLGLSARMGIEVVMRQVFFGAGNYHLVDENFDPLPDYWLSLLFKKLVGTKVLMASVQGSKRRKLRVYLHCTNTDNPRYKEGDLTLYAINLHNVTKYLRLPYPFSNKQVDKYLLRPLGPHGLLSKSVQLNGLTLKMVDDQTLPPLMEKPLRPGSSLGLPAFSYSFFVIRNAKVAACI
Text: as §12, §13, §14, §15, §16, §17, §18, §19, §20

[5] = Stability of siastatin B by 1H NMR; type: physicochemical
Procedure: To determine how siastatin B inhibits β-glucuronidases, we first sought to determine whether inhibition was due to the presence of contaminants from either the commercial material or degradation products resulting from prolonged incubation in an aqueous solution or in the presence of a β-glucuronidase.
Supplemental Figures and Tables
Figure S1. Stability of siastatin B. A) 1H NMR experiment showing siastatin B (2 mg) in D2O phosphate buffer (50 mM, 300 mM NaCl, pH 5.0), taken for two different time points (t=0 min and after 18 h). B) Prolonged incubation of siastatin B with recombinant human heparanase. 1H NMR spectra were taken before and after prolonged incubation with 1.2 µM of recombinant human heparanase. The x-axis of […]
as §11

[6] = fluorogenic substrate MU-GlcUA, McIllvane buffer pH 5.0, competitive inhibition model, read-out: AcGH79 Ki
[7] = 500 µM MU-GlcUA, 0–400 µM siastatin B, pH 5.0

Row | SMILES | Ki [1, 6] [µM] | Ki [2] [µM] | IC50 [3] [µM] | IC50 [4] [µM] | inhibition of AcGH79 by HPLC-purified material compared with commercial siastatin B [1, 7] | inhibition of EcGusB by HPLC-purified material compared with commercial siastatin B [2, 7] | stability in aqueous buffer (NMR) ([5]; D2O phosphate buffer 50 mM, 300 mM NaCl, pH 5.0, 18 h) | stability on prolonged incubation with recombinant human heparanase (1H NMR) ([5]; heparanase 1.2 μM) | Ki ([1]; MU-GlcUA substrate, read-out: inhibition constant for AcGH79) [µM]
1 | O=C(O)[C@H]1CNC[C@@H](O)[C@H]1O [compound 10, galacturonic acid isofagomine] | 1.5 ± 0.4 | 23 ± 3 | 0.7 ± 0.04 | 8 ± 1 | – | – | – | – | –
2 | O=C(O)[C@H]1CNCC(O)(O)[C@H]1O [compound 8] | 5.8 ± 0.5 | 137 ± 3 | 4 ± 2 | 27 ± 3 | – | – | – | – | –
3 | CC(=O)N[C@H]1NC[C@H](C(=O)O)[C@H](O)[C@@H]1O [siastatin B, Siastatin B] | – | – | – | – | inhibited less | inhibited less | no contaminating peaks appeared | very minor additional peaks in the 3.2–3.0 range, with no loss in the starting peaks observed | –
4 | O=C(O)[C@H]1CNCC(O)(O)[C@@H]1O [compound 9] | – | 28 ± 1 | 1.7 ± 0.2 | 200 ± 80 | – | – | – | – | 0.52 ± 0.03
5 | O=C(O)[C@H]1CNC[C@@H](O)[C@@H]1O [compound 11, glucuronic acid isofagomine] | 0.022 ± 0.003 | 1.5 ± 0.3 | 0.6 ± 0.06 | 80 ± 20 | – | – | – | – | –
